Reference: patent US8871934B2, “Fluorene compound and pharmaceutical use thereof” (Japan Tobacco Inc., priority 2008, dated 2014)
Read-outs that look alike come from different tables or passages of the source.

Target: human PDHK2 (hPDHK2) (Homo sapiens (Human), UniProt Q15119)
Experiment: Inhibitory action of PDHK activity in vitro (kinase reaction, residual PDH activity measured)
Type: biochemical
[1] = PDHK inhibitory activity, class symbol of IC50
[2] = read-out: PDHK inhibitory activity IC50
[3] = PDHK inhibitory activity (class symbol)
[4] = class symbol of IC50, read-out: PDHK inhibitory activity

Row | Compound | IC50 [1] [nM] | IC50 [2] [nM] | also measured
1 | CC(=O)N(C)CCOc1cc(-c2cnn(C)c2)c2c(c1)C(O)(C(F)(F)F)c1ccccc1-2 (stereo not drawn) [compound 423] | < 100 | 21 | –
2 | Oc1ccc2c(c1)C(O)(C(F)(F)F)c1ccccc1-2 (stereo not drawn) [compound 38] | > 1000 | 12000 | –
3 | O=C(COc1ccc2c(c1)C(O)(C(F)(F)F)c1ccccc1-2)N1CCCC1 (stereo not drawn) [compound 360] | 100 to 1000 | 548 | –
4 | NC(=O)c1cc(-c2cnn(CCO)c2)cc2c1-c1ccccc1C2(O)C(F)(F)F (stereo not drawn) [compound 536] | < 100 | 54 | –
5 | Cn1cc(-c2cc(C(=O)N3CCC(CO)C3)cc3c2-c2ccccc2C3(O)C(F)(F)F)cn1 (stereo not drawn) [compound 394] | < 100 | 58 | –
6 | O=C(COc1ccc2c(c1)C(O)(C(F)(F)F)c1ccccc1-2)N1CCC[C@H]1CO (stereo partly drawn) [compound 383] | > 1000 | 1220 | –
7 | OC1(C(F)(F)F)c2ccccc2-c2ccc(OCC3CCCC3)cc21 (stereo not drawn) [compound 254] | > 1000 | 1130 | –
8 | CC(C)COc1ccc2c(c1)C(O)(C(F)(F)F)c1ccccc1-2 (stereo not drawn) [compound 264] | > 1000 | 1170 | –
9 | OCC(CO)(CO)n1cc(-c2cc(F)cc3c2-c2ccccc2C3(O)C(F)(F)F)cn1 (single isomer, unassigned; (+)) [compound 703, (+)-2-[4-(2-fluoro-9-hydroxy-9-trifluoromethyl-9H-fluoren-4-yl)-pyrazol-1-yl]-2-hydroxymethyl-propane-1,3-diol] | – | 20 | IC50 [3]: < 100 nM
10 | Cn1cc(-c2cc(C(=O)N3CC3)cc3c2-c2ccccc2C3(O)C(F)(F)F)cn1 (stereo not drawn) [compound 414] | < 100 | 32 | –
11 | CC(C)(O)Cn1cc(-c2cc(F)cc3c2-c2ccccc2C3(O)C(F)(F)F)cn1 (single isomer, unassigned) [compound 674] | – | 30 | IC50 [3]: < 100 nM
12 | O=C(O)CCCOc1cc(-c2cnn(CCO)c2)c2c(c1)C(O)(C(F)(F)F)c1ccccc1-2 (stereo not drawn) [compound 482] | < 100 | 40 | –
13 | O=C(c1ccc2c(c1)C(O)(C(F)(F)F)c1ccccc1-2)N1CC(OCCO)C1 (stereo not drawn) [compound 108] | 100 to 1000 | 462 | –
14 | O=C(c1ccc2c(c1)C(O)(C(F)(F)F)c1ccccc1-2)N1CCC(O)C1 (stereo not drawn) [compound 215] | > 1000 | 4600 | –
15 | O=C(COc1ccc2c(c1)C(O)(C(F)(F)F)c1ccccc1-2)N1CCC[C@@H]1CO (stereo partly drawn) [compound 382] | 100 to 1000 | 863 | –
16 | CC(C)(C)Cn1cc(-c2cc(CO)c3c(c2)C(O)(C(F)(F)F)c2ccccc2-3)cn1 (single isomer, unassigned) [compound 660, 2-[1-(2,2-dimethyl-propyl)-1H-pyrazol-4-yl]-4-hydroxymethyl-9-trifluoromethyl-9H-fluoren-9-ol] | – | 17 | IC50 [3]: < 100 nM
17 | O=C1OCCCN1CCOc1ccc2c(c1)C(O)(C(F)(F)F)c1ccccc1-2 (stereo not drawn) [compound 470] | 100 to 1000 | 168 | –
18 | O=C(c1ccc2c(c1)C(O)(C(F)(F)F)c1ccccc1-2)N1CC(C(=O)N2CCCCC2)C1 (stereo not drawn) [compound 202] | 100 to 1000 | 247 | –
19 | COCCOC1CN(C(=O)c2ccc3c(c2)C(O)(C(F)(F)F)c2ccccc2-3)C1 (stereo not drawn) [compound 106] | 100 to 1000 | 461 | –
20 | O=C(c1ccc2c(c1)C(O)(C(F)(F)F)c1ccccc1-2)N1CC(C(=O)N2CCC(O)CC2)C1 (stereo not drawn) [compound 203] | 100 to 1000 | 423 | –
21 | O=C(COc1ccc2c(c1)C(O)(C(F)(F)F)c1ccccc1-2)N1CCC(CO)CC1 (stereo not drawn) [compound 397] | 100 to 1000 | 424 | –

Row | Compound | IC50 [1] [nM] | IC50 [2] [nM] | also measured
22 | OCC(CO)c1ncc(-c2cc(F)cc3c2-c2ccccc2C3(O)C(F)(F)F)o1 (single isomer, unassigned) [compound 682] | – | 79 | IC50 [3]: < 100 nM
23 | OC1(C(F)(F)F)c2ccccc2-c2ccc(OC3CCCC3)cc21 (stereo not drawn) [compound 259] | > 1000 | 1390 | –
24 | CC(=O)N(C)C1CCN(C(=O)c2ccc3c(c2)C(O)(C(F)(F)F)c2ccccc2-3)C1 (stereo not drawn) [compound 246] | 100 to 1000 | 809 | –
25 | CNC(=O)C1CN(C(=O)c2ccc3c(c2)C(O)(C(F)(F)F)c2ccccc2-3)C1 (stereo not drawn) [compound 124] | 100 to 1000 | 736 | –
26 | CCN(CC)C(=O)C1CN(C(=O)c2ccc3c(c2)C(O)(C(F)(F)F)c2ccccc2-3)C1 (stereo not drawn) [compound 200] | 100 to 1000 | 236 | –
27 | OCc1cc(-c2cnn(CC3CCCCC3)c2)cc2c1-c1ccccc1C2(O)C(F)(F)F (single isomer, unassigned) [compound 668] | – | 17 | IC50 [3]: < 100 nM
28 | CC(C)C(=O)N1CCN(c2ccc3c(c2)C(O)(C(F)(F)F)c2ccccc2-3)CC1 (stereo not drawn) [compound 208] | 100 to 1000 | 677 | –
29 | CCOC(=O)c1cccc2c1-c1ccccc1C2(O)C(F)(F)F (stereo not drawn) [compound 48] | 100 to 1000 | 639 | –
30 | CN1C(=O)CCC1COc1ccc2c(c1)C(O)(C(F)(F)F)c1ccccc1-2 (stereo not drawn) [compound 420] | 100 to 1000 | 225 | –
31 | CN(C)C(=O)CCCOc1ccc2c(c1)C(O)(C(F)(F)F)c1ccccc1-2 (stereo not drawn) [compound 282] | 100 to 1000 | 226 | –
32 | CC(C)Cc1cc(-c2cnn(C(CO)CO)c2)c2c(c1)C(O)(C(F)(F)F)c1ccccc1-2 (stereo not drawn) [compound 648] | – | 44 | IC50 [3]: < 100 nM
33 | O=C1CCCN1CCCc1cc(CO)c2c(c1)C(O)(C(F)(F)F)c1ccccc1-2 (stereo not drawn) [compound 656] | – | 172 | IC50 [3]: 100 to 1000 nM
34 | Cn1cc(-c2cc(C(C)(C)O)c3c(c2)C(O)(C(F)(F)F)c2ccccc2-3)cn1 (stereo not drawn) [compound 591] | – | > 1000 | IC50 [4]: > 1000 nM
35 | CN(C)C(=O)c1ccc2c(c1)-c1ccccc1C2(O)C(F)(F)F (stereo not drawn) [compound 44] | > 1000 | > 100000 | –
36 | O=C(O)c1ccc2c(c1)-c1ccccc1C2(O)C(F)(F)F (stereo not drawn) [compound 41] | > 1000 | 68600 | –
37 | CC(C)(C)C(=O)N1CCN(c2cc(Cl)c3c(c2)C(O)(C(F)(F)F)c2ccccc2-3)CC1 (stereo not drawn) [compound 271] | < 100 | 56 | –
38 | CC(C)(C)OC(=O)c1ccc(-c2cc(-c3cccnc3)c3c(c2)C(O)(C(F)(F)F)c2ccccc2-3)cc1 (stereo not drawn) [compound 341] | < 100 | 79 | –
39 | OC1(C(F)(F)F)c2ccccc2-c2ccc(N3CCNCC3)cc21 (stereo not drawn) [compound 164] | > 1000 | 2750 | –
40 | CC(=O)N(C)c1ccc2c(c1)C(O)(C(F)(F)F)c1ccccc1-2 (stereo not drawn) [compound 96] | > 1000 | 6570 | –
41 | Cn1cc(-c2cc(OCCCCC(=O)O)cc3c2-c2ccccc2C3(O)C(F)(F)F)cn1 (single isomer, unassigned) [compound 552] | < 100 | 17 | –
42 | CNCc1ccc2c(c1)C(O)(C(F)(F)F)c1ccccc1-2 (stereo not drawn) [compound 417] | – | > 1000 | IC50 [4]: > 1000 nM

Row | Compound | IC50 [1] [nM] | IC50 [2] [nM] | also measured
43 | Cc1ccc(-c2ccc3c(c2)C(O)(C(F)(F)F)c2ccccc2-3)cc1 (stereo not drawn) [compound 181] | > 1000 | 1510 | –
44 | OCc1ccc2c(c1)C(O)(C(F)(F)F)c1ccccc1-2 (stereo not drawn) [compound 69] | > 1000 | 16000 | –
45 | CC1CCCN1c1ccc2c(c1)C(O)(C(F)(F)F)c1ccccc1-2 (stereo not drawn) [compound 293] | > 1000 | 4950 | –
46 | O=C1CCC(CO)N1CCOc1ccc2c(c1)C(O)(C(F)(F)F)c1ccccc1-2 (stereo not drawn) [compound 450] | 100 to 1000 | 442 | –
47 | OC1(C(F)(F)F)c2ccccc2-c2c(-c3cccnc3)cc(Cl)cc21 (stereo not drawn) [compound 243] | < 100 | 75 | –
48 | OCCn1cc(-c2cc(Cl)cc3c2-c2ccccc2C3(O)C(F)(F)F)cn1 (stereo not drawn) [compound 460] | < 100 | 30 | –
49 | NC(=O)c1cc(OCCO)cc2c1-c1ccccc1C2(O)C(F)(F)F (stereo not drawn) [compound 640] | – | 732 | IC50 [3]: 100 to 1000 nM
50 | OC1(C(F)(F)F)c2ccccc2-c2c(-c3ccsc3)cccc21 (stereo not drawn) [compound 309] | > 1000 | > 10000 | –
51 | O=C(O)c1ccc(-c2ccc3c(c2)C(O)(C(F)(F)F)c2ccccc2-3)cc1Cl (stereo not drawn) [compound 238] | 100 to 1000 | 252 | –
52 | Cc1cc(-c2cnn(C3(CO)CCCC3)c2)c2c(c1)[C@@](O)(C(F)(F)F)c1ccccc1-2 (stereo in doubt) [compound 546] | < 100 | – | IC50 (PDHK inhibitory activity IC50 (μmol/L)): 15 nM
53 | CCCN(C)C(=O)c1ccc2c(c1)C(O)(C(F)(F)F)c1ccccc1-2 (stereo not drawn) [compound 307] | > 1000 | 3200 | –
54 | O=C1CCCN1CCOc1cnc2c(c1)C(O)(C(F)(F)F)c1ccccc1-2 (stereo not drawn) [compound 430, 1-[2-(5-hydroxy-5-trifluoromethyl-5H-indeno[1,2-b]pyridin-3-yloxy)-ethyl]-pyrrolidin-2-one] | < 100 | 64 | –
55 | Cc1nnc(-c2cccc3c2-c2ccccc2C3(O)C(F)(F)F)o1 (stereo not drawn) [compound 267] | > 1000 | 1200 | –
56 | CC(=O)Nc1ccccc1-c1ccc2c(c1)C(O)(C(F)(F)F)c1ccccc1-2 (stereo not drawn) [compound 190] | > 1000 | > 10000 | –
57 | C#Cc1cc(C(N)=O)c2c(c1)C(O)(C(F)(F)F)c1ccccc1-2 (stereo not drawn) [compound 632] | – | 195 | IC50 [3]: 100 to 1000 nM
58 | O=C(O)CCCOc1cc(Cl)c2c(c1)C(O)(C(F)(F)F)c1ccccc1-2 (stereo not drawn) [compound 478] | 100 to 1000 | 433 | –
59 | CC(C)(C)n1cc(-c2ccc3c(c2)C(O)(C(F)(F)F)c2cccc(CO)c2-3)cn1 (stereo not drawn) [compound 602] | – | > 1000 | IC50 (read-out: PDHK inhibitory activity (class symbol)): > 1000 nM
60 | N#Cc1cc(C(=O)N2CCC2)cc2c1-c1ccccc1C2(O)C(F)(F)F (stereo not drawn) [compound 141] | < 100 | 77 | –
61 | CNC(=O)c1cccc(-c2ccc3c(c2)C(O)(C(F)(F)F)c2ccccc2-3)c1 (stereo not drawn) [compound 157] | 100 to 1000 | 358 | –
62 | OC1(C(F)(F)F)c2ccccc2-c2ccc(-c3cccs3)cc21 (stereo not drawn) [compound 144] | > 1000 | 1120 | –
63 | CC(C)c1cc(-c2cnn(C(CO)CO)c2)c2c(c1)C(O)(C(F)(F)F)c1ccccc1-2 (stereo not drawn) [compound 654] | – | 55 | IC50 [3]: < 100 nM
